Several values for one entry are separate records, joined by “and”; a condition that tells them apart may be missing. Equal entries are not always repeated. Where two headings read alike, the source gives them in different places. Peptide text beside a SMILES is read from it. * marks the point of attachment. Cbz = O=C(OCc1ccccc1)*; CH2F = FC*
Legend:
[1] = tested on: pooled knee joint synovitis (KJS) synovial fluid (SF) aspirates supplemented with purified human lubricin; format: biochemical; settings: for Change in coefficient of friction Δμ ± S.D.: 37° C., E-64 10 μM, Z-LLL-FMK 20 μM, PMSF 25 μM, EDTA 10 mM, Lubricin = no inhibitor; for Lubricating ability compared to controls without enzyme inhibitors: KJS SF at 24, 48, and 96 hours, P<0.001
Method: (§1) The boundary lubricating abilities of protease-treated human lubricin and BSF were measured using a friction apparatus as reported by Davis et al., J. Biomech. Eng. 101:185-192, 1979. Lubricant (200 μL) was applied between a bearing of latex and a ring of polished glass with a contact area of 1.59 cm^2. The latex was oscillated, under a pressure of 0.35×10^6 N/m^2, against the polished glass with an entraining velocity of 0.37 mm/sec. The bearing system was axially loaded within a gimbals system free to rotate around two perpendicular horizontal axes. The friction apparatus recorded displacements of the gimbals system around the vertical loading axis through a linear displacement voltage transducer, where the output was directly proportional to the frictional torque (F). A bearing load of 70 newtons (N) was related to the coefficient of friction (μ) via Amonton's law, F=μN.
(§2) The μ of the lubricant was recorded at room temperature and was preceded by a baseline measurement of μ with normal saline (NS). Lubrication was manifested by a reduction in μ by the lubricant relative to that of NS. Negative Δμ (−Δμ) values indicate lubrication whereas positive Δμ (+Δμ) indicate friction. Addition of 200 μL of lubricant was followed by bringing the bearing surfaces close enough so that the solution wet both surfaces. After 5 min for equilibration, the latex-coated bearing was brought to rest on the glass as it was oscillating. Voltage measurements were recorded at 1, 3, and 5 min. After 5 min, the surfaces were separated for 2 min and then brought back together for three additional 5 min session. The 3 and 5 min μ values of the last two 5 min session were recorded and averaged, and data were later combined with another duplicate experiment providing 8 distinct measurements of μ.
(§3) The SF aspirates from patients diagnosed with a Noyes criteria grade III or IV OA (n=60), with RA (n=20), or with KJS (n=23) were pooled in equal proportions. […] The lubricin-supplemented pooled OA, RA, and KJS SF aspirates were treated at 37° C. and sampled after 24, 48, and 96 hours. The friction analysis of the sampled SF was conducted as described above. Normal human SF was obtained from cartilage allograft donors and was utilized as a control.
(§4) The treatments were performed at 37° C., and SF was sampled at 24, 48, and 96 hours post-treatment. The in vitro friction assay of sampled SF was performed as described above.

[2] = tested on: pooled rheumatoid arthritis (RA) synovial fluid (SF) aspirates supplemented with purified human lubricin; format: biochemical; settings: for Change in coefficient of friction Δμ ± S.D.: 37° C., E-64 10 μM, Z-LLL-FMK 20 μM, PMSF 25 μM, EDTA 10 mM, Lubricin = no inhibitor
Method: as §1, §2, §3, §4

[3] = at 24, 48, and 96 hours, P<0.001

Row | Compound | Change in coefficient of friction Δμ ± S.D. ([1]; 0 hrs) | Change in coefficient of friction Δμ ± S.D. ([1]; 24 hrs) | Change in coefficient of friction Δμ ± S.D. ([1]; 48 hrs) | Change in coefficient of friction Δμ ± S.D. ([1]; 96 hrs) | Lubricating ability compared to controls without enzyme inhibitors [1] | average increase in Δμ ([1]; at 24 hours, KJS SF) | average increase in Δμ ([1]; at 48 hours, KJS SF) | average increase in Δμ ([1]; at 96 hours, KJS SF) | Change in coefficient of friction Δμ ± S.D. ([2]; 0 hrs) | Change in coefficient of friction Δμ ± S.D. ([2]; 24 hrs) | Change in coefficient of friction Δμ ± S.D. ([2]; 48 hrs) | Change in coefficient of friction Δμ ± S.D. ([2]; 96 hrs) | Δμ compared to lubricin-supplemented pooled RA SF aspirates [2, 3] | average increase in Δμ ([2]; at 24 hours, RA SF) | average increase in Δμ ([2]; at 48 hours, RA SF) | average increase in Δμ ([2]; at 96 hours, RA SF) | average increase in Δμ [1] | Δμ compared to lubricin-supplemented pooled KJS SF aspirates [1] | average increase in Δμ [2] | Δμ compared to lubricin-supplemented pooled RA SF aspirates [2]
1 | O=S(=O)(F)Cc1ccccc1 [PMSF, phenylmethanesulfonyl fluoride] | −0.060 ± 0.001 | −0.033 ± 0.006 | −0.030 ± 0.005 | −0.027 ± 0.005 | preserved lubricating ability | 45.0% | 50.0% | 55.0% | −0.060 ± 0.002 | −0.009 ± 0.009 | −0.008 ± 0.004 | −0.009 ± 0.001 | significant decrease in Δμ | 85.0% | 86.3% | 85.0% | – | – | – | –
2 | CC(C)C[C@H](NC(=O)[C@H](CC(C)C)NC(=O)[C@H](CC(C)C)NC(=O)OCc1ccccc1)C(=O)CF [Z-LLL-FMK, Z-Leu-Leu-Leu-fluoromethyl ketone] (Cbz-Leu-Leu-Leu-CH2F) | −0.060 ± 0.002 | −0.035 ± 0.002 | −0.031 ± 0.003 | −0.028 ± 0.002 | preserved lubricating ability | 41.7% | 48.3% | 53.3% | −0.060 ± 0.002 | −0.049 ± 0.002 | −0.019 ± 0.001 | −0.005 ± 0.003 | significant decrease in Δμ | 18.3% | 68.3% | 91.7% | – | – | – | –
3 | O=C(O)CN(CCN(CC(=O)O)CC(=O)O)CC(=O)O [EDTA] | – | – | – | – | – | – | – | – | – | – | – | – | – | – | – | – | 50.0% and 80.0% and 85.0% | significant (P<0.01) decrease in Δμ | 90.0% and 88.3% and 128.3% | significant decrease in Δμ
4 | CC(C)C[C@H](NC(=O)[C@H]1O[C@@H]1C(=O)O)C(=O)NCCCCN=C(N)N (relative stereo) [E-64, L-trans-epoxysuccinyl-leucyl-amido-(4-guanidino)-butane] | −0.059 ± 0.004 | −0.042 ± 0.005 | −0.039 ± 0.007 | −0.034 ± 0.002 | preserved lubricating ability | 32.7% | 38.5% | 42.4% | −0.060 ± 0.002 | −0.053 ± 0.004 | −0.024 ± 0.002 | −0.014 ± 0.004 | significant decrease in Δμ | 11.7% | 60.0% | 76.7% | – | – | – | –
